Results: US20180320217A1, “METHODS FOR SAMPLING AND MEASURING ORAL LAVAGE PROTEINS” (The Procter & Gamble Company, priority 2017, published 2018)
Several values for one entry are separate records, joined by “and”; a condition that tells them apart may be missing. Equal values may be shown once. Entries after “also recorded” stand apart in the source; their conditions may differ.

What was measured:
[1] = target: T1, Malate dehydrogenase (Sus scrofa, UniProt P00346); assay: Formation of formazan dyes: Malate dehydrogenase and 1-Methoxy PMS, absence of malate (TABLE 17); format: biochemical, pig heart; parameters: L-malate dehydrogenase (pig heart); purchased Sigma-Aldrich 10127248001 / 10127914001
T1 sequence (P00346 25-338): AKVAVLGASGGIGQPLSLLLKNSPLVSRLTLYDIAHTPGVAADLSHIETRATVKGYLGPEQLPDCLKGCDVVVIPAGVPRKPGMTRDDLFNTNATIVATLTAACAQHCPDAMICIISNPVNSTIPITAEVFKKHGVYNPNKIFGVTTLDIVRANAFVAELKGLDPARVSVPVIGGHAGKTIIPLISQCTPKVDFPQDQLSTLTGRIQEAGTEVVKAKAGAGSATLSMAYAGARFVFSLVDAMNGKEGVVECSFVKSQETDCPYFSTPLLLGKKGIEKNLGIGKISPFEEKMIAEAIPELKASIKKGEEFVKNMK

[2] = test system: diaphorase; assay: Formation of formazan dyes: only diaphorase, not malate (TABLE 13); format: biochemical, Clostridium kluyveri; conditions: mean of three experiments
[3] = test system: oral lavage; assay: Formation of formazan dyes: oral lavage, malate and diaphorase (TABLE 12); format: biochemical, human; conditions: oral lavage, malate and diaphorase
[4] = test system: Malate dehydrogenase and diaphorase; assay: Formation of formazan dyes: Malate dehydrogenase and diaphorase, absence of malate (TABLE 9); format: biochemical, pig heart
[5] = test system: diaphorase; assay: Effect of concentrations of tetrazolium salts on formation of formazan dyes (FIGS. 4A-4G); format: biochemical; conditions: 15 mM NADH+H, 20 μg diaphorase, pH 7.5; FIGS. 4A to 4G
Procedure: On the idea that higher concentrations of tetrazolium salts in the assay buffer would likely result in more formazan dyes in the reaction, various concentrations of tetrazolium salts were added to a reaction buffer and the formation of formazan dyes were measured at 0, 30 and 60 minutes. […] The reactions were performed at room temperature. Absorbance was taken at 0, 30 and 60 minutes.

[6] = test system: diaphorase; assay: Formation of formazan dyes: NADH, diaphorase and malate (TABLE 8); format: biochemical, Clostridium kluyveri; conditions: NADH, diaphorase and malate
[7] = test system: diaphorase; assay: Formation of formazan dyes: only diaphorase and malate (TABLE 14); format: biochemical, Clostridium kluyveri; conditions: mean of three experiments
[8] = test system: diaphorase; assay: Formation of formazan dyes: NADH and diaphorase, absence of malate (TABLE 7); format: biochemical, Clostridium kluyveri; conditions: NADH and diaphorase, absence of malate
[9] = Formation of formazan dyes: NADH, malate and 1-methoxy PMS (TABLE 16); format: biochemical
[10] = test system: oral lavage; assay: Formation of formazan dyes: oral lavage and diaphorase, not malate (TABLE 11); format: biochemical, human
[11] = test system: oral lavage; assay: Formation of formazan dyes: oral lavage and 1-Methoxy PMS, absence of malate (TABLE 19); format: biochemical, human; conditions: disodium salt
[12] = Formation of formazan dyes: control buffer, malate and 1-Methoxy PMS (TABLE 22); format: biochemical
[13] = test system: Malate dehydrogenase and diaphorase; assay: Formation of formazan dyes: Malate dehydrogenase, diaphorase and malate (TABLE 10); format: biochemical, pig heart
[14] = Formation of formazan dyes: control buffer and 1-Methoxy PMS, absence of malate (TABLE 21); format: biochemical; conditions: disodium salt
[15] = Formation of formazan dyes: NADH and 1-methoxy PMS, absence of malate (TABLE 15); format: biochemical; conditions: disodium salt

SMILES: COc1cc(-c2ccc(-[n+]3nc(-c4ccc(C(=O)N(CCS(=O)(=O)[O-])CCS(=O)(=O)[O-])cc4)nn3-c3nc4ccccc4s3)c(OC)c2)ccc1-[n+]1nc(-c2ccc(C(=O)N(CCS(=O)(=O)[O-])CCS(=O)(=O)[O-])cc2)nn1-c1nc2ccccc2s1.[Na+].[Na+] [WST-5, 2,2′-Dibenzothiazolyl-5,5′-bis[4-di(2-sulfoethyl)carbamoylphenyl]-3,3′-(3,3′-dimethoxy 4,4′-biphenylene)ditetrazolium, disodium salt]
- reduction by malate dehydrogenase alone [1]: did not catalyze the reduction
- Absorbance, formation of formazan dyes (Means) ([1]; disodium salt): 0.24 and 0.37 and 0.41 and 0.43
- Absorbance, formation of formazan dyes (Means) ([2]; 0 h): 0.25
- Absorbance, formation of formazan dyes (Means) ([2]; 1 h): 0.30
- Absorbance, formation of formazan dyes (Means) ([2]; 2 h): 0.35
- Absorbance, formation of formazan dyes (Means) ([2]; 3 h): 0.32
- Absorbance, formation of formazan dyes (Means) ([2]; 4 h): 0.32
- Absorbance, formation of formazan dyes (Means) ([2]; 6 h): 0.38
- Absorbance, formation of formazan dyes (Means) ([2]; 8 h): 0.41
- Absorbance, formation of formazan dyes (Means) ([2]; 10 h): 0.38
- Absorbance, formation of formazan dyes (Means) ([2]; 12 h): 0.36
- Formation of formazan dyes, absorbance, Means 0 h ([3]; 0 h): 0.57
- Formation of formazan dyes, absorbance, Means 1 h ([3]; 1 h): 0.74
- Formation of formazan dyes, absorbance, Means 2 h ([3]; 2 h): 0.80
- Formation of formazan dyes, absorbance, Means 3 h ([3]; 3 h): 0.75
- Formation of formazan dyes, absorbance, Means 4 h ([3]; 4 h): 0.67
- Formation of formazan dyes, absorbance, Means 6 h ([3]; 6 h): 0.85
- Formation of formazan dyes, absorbance, Means 8 h ([3]; 8 h): 0.90
- Formation of formazan dyes, absorbance, Means 10 h ([3]; 10 h): 1.02
- Formation of formazan dyes, absorbance, Means 12 h ([3]; 12 h): 1.08
- Formation of formazan dyes, absorbance, Means 0 h ([4]; Malate dehydrogenase and diaphorase, absence of malate, 0 h): 0.83
- Formation of formazan dyes, absorbance, Means 1 h ([4]; Malate dehydrogenase and diaphorase, absence of malate, 1 h): 1.35
- Formation of formazan dyes, absorbance, Means 2 h ([4]; Malate dehydrogenase and diaphorase, absence of malate, 2 h): 1.58
- Formation of formazan dyes, absorbance, Means 3 h ([4]; Malate dehydrogenase and diaphorase, absence of malate, 3 h): 1.74
- Formation of formazan dyes, absorbance, Means 4 h ([4]; Malate dehydrogenase and diaphorase, absence of malate, 4 h): 1.86
- Formation of formazan dyes, absorbance, Means 6 h ([4]; Malate dehydrogenase and diaphorase, absence of malate, 6 h): 2.06
- Formation of formazan dyes, absorbance, Means 8 h ([4]; Malate dehydrogenase and diaphorase, absence of malate, 8 h): 2.24
- Formation of formazan dyes, absorbance, Means 10 h ([4]; Malate dehydrogenase and diaphorase, absence of malate, 10 h): 2.33
- Formation of formazan dyes, absorbance, Means 12 h ([4]; Malate dehydrogenase and diaphorase, absence of malate, 12 h): 2.33
- reduction of tetrazolium dye in the absence of substrate malate ([4]; malate dehydrogenase and diaphorase (TABLE 9)): partially reduced
- concentration of tetrazolium salt at which absorbance reached peaks [5]: 1 mM
- Formation of formazan dyes, absorbance, Means 0 h ([6]; 0 h): 2.62
- Formation of formazan dyes, absorbance, Means 1 h ([6]; 1 h): 2.48
- Formation of formazan dyes, absorbance, Means 2 h ([6]; 2 h): 2.44
- Formation of formazan dyes, absorbance, Means 3 h ([6]; 3 h): 2.41
- Formation of formazan dyes, absorbance, Means 4 h ([6]; 4 h): 2.45
- Formation of formazan dyes, absorbance, Means 6 h ([6]; 6 h): 2.41
- Formation of formazan dyes, absorbance, Means 8 h ([6]; 8 h): 2.36
- Formation of formazan dyes, absorbance, Means 10 h ([6]; 10 h): 2.31
- Formation of formazan dyes, absorbance, Means 12 h ([6]; 12 h): 2.26
- Absorbance, formation of formazan dyes (Means) ([7]; 0 h): 0.09
- Absorbance, formation of formazan dyes (Means) ([7]; 1 h): 0.12
- Absorbance, formation of formazan dyes (Means) ([7]; 2 h): 0.15
- Absorbance, formation of formazan dyes (Means) ([7]; 3 h): 0.18
- Absorbance, formation of formazan dyes (Means) ([7]; 4 h): 0.21
- Absorbance, formation of formazan dyes (Means) ([7]; 6 h): 0.23
- Absorbance, formation of formazan dyes (Means) ([7]; 8 h): 0.26
- Absorbance, formation of formazan dyes (Means) ([7]; 10 h): 0.29
- Absorbance, formation of formazan dyes (Means) ([7]; 12 h): 0.32
- Formation of formazan dyes, absorbance, Means 0 h ([8]; 0 h): 2.81
- Formation of formazan dyes, absorbance, Means 1 h ([8]; 1 h): 2.81
- Formation of formazan dyes, absorbance, Means 2 h ([8]; 2 h): 2.79
- Formation of formazan dyes, absorbance, Means 3 h ([8]; 3 h): 2.78
- Formation of formazan dyes, absorbance, Means 4 h ([8]; 4 h): 2.86
- Formation of formazan dyes, absorbance, Means 6 h ([8]; 6 h): 2.83
- Formation of formazan dyes, absorbance, Means 8 h ([8]; 8 h): 2.77
- Formation of formazan dyes, absorbance, Means 10 h ([8]; 10 h): 2.74
- Formation of formazan dyes, absorbance, Means 12 h ([8]; 12 h): 2.66
- Absorbance, formation of formazan dyes (Means) [9]: 1.84
- Formation of formazan dyes, absorbance, Means 0 h ([10]; oral lavage and diaphorase, not malate, 0 h): 0.60
- Formation of formazan dyes, absorbance, Means 1 h ([10]; oral lavage and diaphorase, not malate, 1 h): 0.72
- Formation of formazan dyes, absorbance, Means 2 h ([10]; oral lavage and diaphorase, not malate, 2 h): 0.77
- Formation of formazan dyes, absorbance, Means 3 h ([10]; oral lavage and diaphorase, not malate, 3 h): 0.80
- Formation of formazan dyes, absorbance, Means 4 h ([10]; oral lavage and diaphorase, not malate, 4 h): 0.78
- Formation of formazan dyes, absorbance, Means 6 h ([10]; oral lavage and diaphorase, not malate, 6 h): 0.83
- Formation of formazan dyes, absorbance, Means 8 h ([10]; oral lavage and diaphorase, not malate, 8 h): 0.84
- Formation of formazan dyes, absorbance, Means 10 h ([10]; oral lavage and diaphorase, not malate, 10 h): 0.81
- Formation of formazan dyes, absorbance, Means 12 h ([10]; oral lavage and diaphorase, not malate, 12 h): 0.80
- reduction to formazan dyes by pooled oral lavage ([10]; pooled oral lavage of high bleeder group, diaphorase, no added malate (TABLE 11)): partially reduced to formazan dyes
- Absorbance, formation of formazan dyes (Means) [11]: 0.77 and 1.11 and 1.29 and 1.39
- Means absorbance 0 h [12]: 0.13
- Means absorbance 1 h [12]: 0.15
- Means absorbance 2 h [12]: 0.16
- Means absorbance 3 h [12]: 0.16
- Formation of formazan dyes, absorbance, Means 0 h ([13]; Malate dehydrogenase, diaphorase and malate, 0 h): 0.75
- Formation of formazan dyes, absorbance, Means 1 h ([13]; Malate dehydrogenase, diaphorase and malate, 1 h): 1.32
- Formation of formazan dyes, absorbance, Means 2 h ([13]; Malate dehydrogenase, diaphorase and malate, 2 h): 1.67
- Formation of formazan dyes, absorbance, Means 3 h ([13]; Malate dehydrogenase, diaphorase and malate, 3 h): 1.93
- Formation of formazan dyes, absorbance, Means 4 h ([13]; Malate dehydrogenase, diaphorase and malate, 4 h): 2.04
- Formation of formazan dyes, absorbance, Means 6 h ([13]; Malate dehydrogenase, diaphorase and malate, 6 h): 2.20
- Formation of formazan dyes, absorbance, Means 8 h ([13]; Malate dehydrogenase, diaphorase and malate, 8 h): 2.34
- Formation of formazan dyes, absorbance, Means 10 h ([13]; Malate dehydrogenase, diaphorase and malate, 10 h): 2.49
- Formation of formazan dyes, absorbance, Means 12 h ([13]; Malate dehydrogenase, diaphorase and malate, 12 h): 2.60
- conversion to reduced formazan dyes ([13]; malate dehydrogenase, diaphorase and malate (TABLE 10), disodium salt): converted to reduced formazan dyes in a time-dependent fashion; also recorded: able to catalyze the reduction
- Absorbance, formation of formazan dyes (Means) [14]: 0.33 and 0.45 and 0.48 and 0.55
- Absorbance, formation of formazan dyes (Means) [15]: 2.12 and 2.14 and 2.18 and 2.22
